{"source": "paper PMC13233820", "about": "“Recruitment of Mre11 to recombination sites during meiosis” (Nature Communications, 2026)", "key": {"Mer2": {"tested_on": "Mer2", "assay": "Yeast two-hybrid", "format": "binding, Saccharomyces cerevisiae", "conditions": "SC-Leu-Ura-His + 25 mM 3-AT", "experimental": "Bait and prey plasmids were co-transformed into yWL365 using the standard ‘LiAc’-based transformation and plated on SC-Leu-Ura selective media. At least four independent transformants were tested for Mer2-Mre11 interaction by spotting a dilution series on SC-Leu- Ura-His + 25 mM 3-AT (3-amino-1,2,4-triazole) and growing for 4-5 days at 30 °C."}, "Mer2 condensates": {"tested_on": "Mer2 condensates", "assay": "Colocalization of fluorescently-labeled Mer2 and Mre11 condensates", "format": "binding, Saccharomyces cerevisiae", "conditions": "800 nM mScarlet-Mre11-C49 with 200 nM eGFP-Mer2, 30 min", "experimental": "Fig. 4 Mer2 recruits Mre11 during meiosis. a Effect of 1,6-hexanediol treatment on meiotic Mre11^myc foci visualized by immunofluorescence analysis of yeast nuclear spreads 4 hours after transfer to SPM. […] At least 22 tetrads were dissected for each strain (n ≥ 88 spores). e Quantification of sub-population of cells showing discrete Mre11 foci and aggregated Mre11 foci in indicated strains. Images used for analysis were from the same experiments in (b) and (d). f Colocalization of fluorescently-labeled Mer2 with wild-type or truncated Mre11. […] The number of images analyzed for each sample were WT (n = 11), Mre11^Δ10-270 (n = 13), Mre11^Δ290-472 (n = 15), Mre11^ΔIDR (n = 10), Mre11^ΔC49 (n = 13). Error bars represent mean ± SD from the indicated (n) fields of view. p-values compared to Mre11-WT are: Mre11^Δ10-270 (0.006), Mre11^Δ290-472 (0.0003), Mre11^ΔIDR (<0.0001), Mre11^ΔC49 (<0.0001). g Colocalization of fluorescently-labeled Mre11-C49 and Mer2. Condensates were assembled by mixing 800 nM of ^mScarletMre11-C49 and 200 nM of ^eGFPMer2 for 30 min prior to imaging. […]\nProteins were diluted to a 10 × stock of their appropriate working concentrations in their respective storage buffers. […] Images were analyzed with ImageJ using a custom-made script. […] Masked foci were counted, and the intensity inside the focus mask was integrated. […] Data were analyzed using Graphpad Prism 10.4.0."}, "HisSUMO-Mer2 (wild type)": {"tested_on": "HisSUMO-Mer2 (wild type)", "assay": "Co-expression pull-down assay (NiNTA, anti-MBP immunoblot)", "format": "binding, Saccharomyces cerevisiae", "conditions": "co-expressed in E. coli", "experimental": "Wild-type and mutant MBP-tagged Mre11-C49 and HisSUMO-tagged Mer2 were co-expressed in 50 mL of E. coli BL21 cultures and purified by affinity chromatography on Ni-NTA resin following a procedure similar to that described above. Briefly, cells were lysed by sonication and centrifuged at maximum speed for 30 mins at 4 °C on a table-top centrifuge. A small fraction of the supernatant was collected as ‘Input’ and the remainder was incubated with 120 µL Ni-NTA resin, pre-equilibrated with wash buffer (25 mM HEPES pH 7.5, 20 mM imidazole, 0.1 mM DTT, 0.1 mM PMSF, 10% glycerol), for 1 hour on a rotating wheel at 4 °C. The resin was washed twice with 2 ml in batch and five times with 2 ml on column before eluting with 250 µL of 500 mM imidazole in wash buffer. Input and elution fractions were separated by SDS-PAGE followed by immunoblotting with primary murine anti-MBP monoclonal antibody at 1:10,000 dilution (E8032S, NEB) and secondary goat anti-mouse IgG-HRP conjugated at 1:10,000 dilution (AP308P, Chemicon)."}, "Mer2 coiled-coil": {"tested_on": "Mer2 coiled-coil", "assay": "ITC Mre11-C49 / Mer2 coiled-coil", "format": "binding, Saccharomyces cerevisiae", "conditions": "Mre11-C49 titrated into Mer2 coiled-coil; peer review file"}, "MRX condensates": {"tested_on": "MRX condensates", "format": "biochemical, Saccharomyces cerevisiae", "conditions": "5% 1,6-hexanediol, ten-minute treatment", "experimental": "Experiments were performed without PEG. b, d Effect of DNase I, in the absence of PEG, on (b) Mre11 (n = 9 (no treatment) and 11 (DNase I)) and (d) MRX (n = 9 (no treatment) and 11 (DNase I)) condensates. Condensates were pre-assembled for 20 min with 5.7 nM pUC19 prior to challenge. Quantification represents total foci intensity (green) in a field of view and total number of foci per 1000 µm^2 (magenta). Foci intensity is normalized to the mean intensity of samples with DNA for (a, c) and untreated samples for (b, d). Error bars represent mean ± SD from the indicated (n) fields of view. e, f Effect of the presence of 5% PEG-3350 on (e) Mre11 (n = 12) and (f) MRX (n = 11) condensate formation. Quantification represents total foci intensity (green) in a field of view (normalized to the mean of + PEG images) and total number of foci per 1000 µm^2 (magenta). Error bars represent mean ± SD from the indicated (n) fields of view. g–j Effect of challenge with 5% 1,6-hexanediol and 0.5 M NaCl on (g, h) Mre11 and (i, j) MRX condensates. Condensates were assembled for 20 min prior to challenge and incubated for 15 min and 10 min, respectively, after challenge. […]\n(§1) Proteins were diluted to a 10 × stock of their appropriate working concentrations in their respective storage buffers. […] Images were analyzed with ImageJ using a custom-made script. […] Data were analyzed using Graphpad Prism 10.4.0."}, "Mre11 condensates": {"tested_on": "Mre11 condensates", "format": "biochemical, Saccharomyces cerevisiae", "conditions": "5% 1,6-hexanediol, ten-minute treatment", "experimental": "Experiments were performed without PEG. b, d Effect of DNase I, in the absence of PEG, on (b) Mre11 (n = 9 (no treatment) and 11 (DNase I)) and (d) MRX (n = 9 (no treatment) and 11 (DNase I)) condensates. Condensates were pre-assembled for 20 min with 5.7 nM pUC19 prior to challenge. Quantification represents total foci intensity (green) in a field of view and total number of foci per 1000 µm^2 (magenta). Foci intensity is normalized to the mean intensity of samples with DNA for (a, c) and untreated samples for (b, d). Error bars represent mean ± SD from the indicated (n) fields of view. e, f Effect of the presence of 5% PEG-3350 on (e) Mre11 (n = 12) and (f) MRX (n = 11) condensate formation. Quantification represents total foci intensity (green) in a field of view (normalized to the mean of + PEG images) and total number of foci per 1000 µm^2 (magenta). Error bars represent mean ± SD from the indicated (n) fields of view. g–j Effect of challenge with 5% 1,6-hexanediol and 0.5 M NaCl on (g, h) Mre11 and (i, j) MRX condensates. […] In the control reaction, an equivalent volume (1/20) of water was added instead of hexanediol. […]\nas §1"}, "[1]": {"tested_on": "MMS-induced Mre11^myc foci in vegetatively growing yeast", "assay": "Immunofluorescence of MMS-induced Mre11myc foci, vegetative yeast nuclear spreads", "format": "cell-based, Saccharomyces cerevisiae", "experimental": "(§2) Following standard protocols, strains were patched on YPG plates, mated and streaked on YPD plates, and selected diploid colonies grown in liquid YPD at 30 °C, 250 rpm, overnight. For meiotic synchronization, diploid cultures grown overnight in YPD were transferred to YPA (1% yeast extract, 2% peptone, 1% potassium acetate) at OD600 0.2 and grown for 12–14 h at 30 °C, 250 rpm. Once the cultures reached OD600 between 1.2–1.6, cells were washed once with prewarmed sterile water and immediately transferred to sporulation medium supplemented with amino acids (320 µL amino acid complementation media for 100 mL of sporulation media (SPM)) and were kept shaking at 30 °C, 250 rpm during the entire meiotic time-course. For MMS and CPT (Sigma) sensitivity assays, serial dilutions of overnight cultures were spotted on freshly prepared YPD-MMS or YPD-CPT plates containing the indicated percentage of MMS or CPT, respectively. Plates were grown for two days at 30 °C. For immunofluorescence of vegetatively growing cells, overnight cultures were refreshed by diluting to OD600 0.2 and grown for 3-4 hours to reach OD600 1.2–1.4 before subjecting to MMS or MMS followed by 5% 1,6-hexanediol treatment. For 5% 1,6-hexanediol treatment, cells were first converted to spheroplasts and then treated with 5% 1,6-hexanediol for 4-5 min. Spheroplasts were then immediately washed, lysed, and fixed using the protocol described below.\nMeiotic cultures were harvested 4 h after transfer to SPM, washed with sterile cold water, and resuspended in 1 M sorbitol, 1 × PBS (pH 7), 10 mM DTT, 0.5 mg/ml zymolyase 20 T, and incubated for 30 mins at 30 °C with gentle shaking. […]\n(§3) Slides were blocked with 90% FBS, 1 × PBS for 1 h at room temperature in a humid chamber and then incubated with primary antibody (mouse mAb anti-myc, 1:200 (2276S, Cell Signaling Technology), rabbit anti-phospho H2A-S129, 1:200 (ab15083, abcam)) diluted in 3% BSA, 1 × PBS in a humid chamber for 2 h at 37 °C or overnight at 4 °C. […] Images were captured on a Zeiss Axio Observer with a 100 ×/1.4 NA oil immersion objective and were analyzed in ImageJ."}, "meiotic Mre11^myc foci": {"tested_on": "meiotic Mre11^myc foci", "assay": "Immunofluorescence of meiotic Mre11myc foci, yeast nuclear spreads", "format": "cell-based, Saccharomyces cerevisiae", "conditions": "brief exposure to 1,6-hexanediol, prophase I spreads", "experimental": "as §2, with “Plates were grown for two days at 30 °C. For immunofluorescence of vegetatively growing cells, overnight cultures were refreshed by diluting to OD600 0.2 and grown for 3-4 hours to reach OD600 1.2–1.4 before subjecting to MMS or MMS followed by 5% 1,6-hexanediol treatment. For 5% 1,6-hexanediol treatment, cells were first converted to spheroplasts and then treated with 5% 1,6-hexanediol for 4-5 min. Spheroplasts were then immediately washed, lysed, and fixed using the protocol described below.” left out\nas §3"}}, "data": [{"compound": "SYGLLNGRKTKTKTRSAASTKTASRRGKGRASRTPKTDILGSLLAKKRK [Mre11-C49, Mre11 C-terminal residues 644–692]", "values": [{"measurement": "Yeast two-hybrid interaction with Mer2 (in words)", "setting": "Mer2", "result": "not sufficient for Mer2 binding"}, {"measurement": "Localization around Mer2 condensates (in words)", "setting": "Mer2 condensates", "result": "forms a halo-like structure around Mer2 condensates"}, {"measurement": "Interaction with Mer2 in pulldown (in words)", "setting": "HisSUMO-Mer2 (wild type)", "result": "directly binds Mer2"}, {"measurement": "ITC result", "setting": "Mer2 coiled-coil", "result": "inconclusive"}]}, {"compound": "OCCCCCCO", "note": "[1,6-hexanediol]", "values": [{"measurement": "Effect on MRX foci intensity (in words)", "setting": "MRX condensates", "result": "strong reduction in foci intensity"}, {"measurement": "Effect on Mre11 foci intensity (in words)", "setting": "Mre11 condensates", "result": "strong reduction in foci intensity"}, {"measurement": "Effect on MMS-induced Mre11 foci (in words)", "setting": "[1]; 5% 1,6-hexanediol, 4-5 min", "result": "readily dissolved MMS-induced foci"}, {"measurement": "Percentage of aggregates", "setting": "[1]; MMS + 5% 1,6-hexanediol 4-5 min", "result": 100}, {"measurement": "Effect on meiotic Mre11 foci (in words)", "setting": "meiotic Mre11^myc foci", "result": "disassembles these foci"}]}]}
